Measurements reported in ChEMBL document CHEMBL3045590, “Design, synthesis, bioactivity, and structure-activity relationship (SAR) studies of novel benzoylphenylureas containing oxime ether group” (2008).
In brackets after ≈: the same amount, converted by molar mass.

Columns and labels:
Format in all cases: functional
Culex pipiens pallens [1] = assay: Larvicidal activity against fourth-instar larval stage of Culex pipiens pallens (mosquito) assessed as mortality at 0.5 mg/l at 25 +/-1 degC after 8 days; settings: 192 h
Culex pipiens pallens [2] = assay: Larvicidal activity against fourth-instar larval stage of Culex pipiens pallens (mosquito) assessed as mortality at 0.0025 mg/l at 25 +/-1 degC after 8 days; settings: 192 h
Culex pipiens pallens [3] = assay: Larvicidal activity against fourth-instar larval stage of Culex pipiens pallens (mosquito) assessed as mortality at 0.001 mg/l at 25 +/-1 degC after 8 days; settings: 192 h
Mythimna separata [4] = assay: Ratio of Flucycloxuron LC50 to compound LC50 for fourth-instar larval stage of Mythimna separata (Oriental armyworm) measured after 4 days
Culex pipiens pallens [5] = assay: Larvicidal activity against fourth-instar larval stage of Culex pipiens pallens (mosquito) assessed as mortality at 1 mg/l at 25 +/-1 degC after 8 days; settings: 192 h
Culex pipiens pallens [6] = assay: Larvicidal activity against fourth-instar larval stage of Culex pipiens pallens (mosquito) assessed as mortality at 0.1 mg/l at 25 +/-1 degC after 8 days; settings: 192 h
Culex pipiens pallens [7] = assay: Larvicidal activity against fourth-instar larval stage of Culex pipiens pallens (mosquito) assessed as mortality at 0.05 mg/l at 25 +/-1 degC after 8 days; settings: 192 h
Culex pipiens pallens [8] = assay: Larvicidal activity against fourth-instar larval stage of Culex pipiens pallens (mosquito) assessed as mortality at 0.25 mg/l at 25 +/-1 degC after 8 days; settings: 192 h
Cucumis sativus = assay: Growth regulation of Cucumis sativus (cucumber) seeds assessed as stimulation of radicle growth at 10 mg/l at 26 degC after 5 days
Mythimna separata [9] = assay: Larvicidal activity against fourth-instar larval stage of Mythimna separata (Oriental armyworm) in compound-pretreated corn leaves assessed as mortality at 2.5 mg/l at 25 +/-1 degC after 4 days
Culex pipiens pallens [10] = assay: Larvicidal activity against fourth-instar larval stage of Culex pipiens pallens (mosquito) assessed as mortality at 0.01 mg/l at 25 +/-1 degC after 8 days; settings: 192 h
Mythimna separata [11] = assay: Larvicidal activity against fourth-instar larval stage of Mythimna separata (Oriental armyworm) in compound-pretreated corn leaves assessed as mortality at 0.25 mg/l at 25 +/-1 degC after 4 days
Culex pipiens pallens [12] = assay: Larvicidal activity against fourth-instar larval stage of Culex pipiens pallens (mosquito) assessed as mortality at 0.025 mg/l at 25 +/-1 degC after 8 days; settings: 192 h
Mythimna separata [13] = assay: Larvicidal activity against fourth-instar larval stage of Mythimna separata (Oriental armyworm) in compound-pretreated corn leaves assessed as mortality at 25 +/-1 degC after 4 days
Mythimna separata [14] = assay: Larvicidal activity against fourth-instar larval stage of Mythimna separata (Oriental armyworm) in compound-pretreated corn leaves assessed as mortality at 0.5 mg/l at 25 +/-1 degC after 4 days
Mythimna separata [15] = assay: Larvicidal activity against fourth-instar larval stage of Mythimna separata (Oriental armyworm) in compound-pretreated corn leaves assessed as mortality at 1 mg/l at 25 +/-1 degC after 4 days
Culex pipiens pallens [16] = assay: Larvicidal activity against fourth-instar larval stage of Culex pipiens pallens (mosquito) assessed as mortality at 0.005 mg/l at 25 +/-1 degC after 8 days; settings: 192 h
Mythimna separata [17] = assay: Ratio of Hexaflumuron LC50 to compound LC50 for fourth-instar larval stage of Mythimna separata (Oriental armyworm) measured after 4 days
Mythimna separata [18] = assay: Larvicidal activity against fourth-instar larval stage of Mythimna separata (Oriental armyworm) in compound-pretreated corn leaves assessed as mortality at 5 mg/l at 25 +/-1 degC after 4 days
Culex pipiens pallens [19] = assay: Larvicidal activity against fourth-instar larval stage of Culex pipiens pallens (mosquito) assessed as mortality at 0.0005 mg/l at 25 +/-1 degC after 8 days; settings: 192 h
Mythimna separata [20] = assay: Larvicidal activity against fourth-instar larval stage of Mythimna separata (Oriental armyworm) in compound-pretreated corn leaves assessed as mortality at 25 mg/l at 25 +/-1 degC after 4 days
Culex pipiens pallens [21] = assay: Ratio of larvicidal activity of compound to larvicidal activity of Flucycloxuron for fourth-instar larval stage of Culex pipiens pallens (mosquito) measured after 8 days
Mythimna separata [22] = assay: Larvicidal activity against fourth-instar larval stage of Mythimna separata (Oriental armyworm) in compound-pretreated corn leaves assessed as mortality at 10 mg/l at 25 +/-1 degC after 4 days
Culex pipiens pallens [23] = assay: Larvicidal activity against fourth-instar larval stage of Culex pipiens pallens (mosquito) assessed as mortality at 0.00025 mg/l at 25 +/-1 degC after 8 days; settings: 192 h
Mythimna separata [24] = assay: Larvicidal activity against fourth-instar larval stage of Mythimna separata (Oriental armyworm) in compound-pretreated corn leaves assessed as mortality at 0.125 mg/l at 25 +/-1 degC after 4 days
Culex pipiens pallens [25] = assay: Larvicidal activity against fourth-instar larval stage of Culex pipiens pallens (mosquito) assessed as mortality at 2 mg/l at 25 +/-1 degC after 8 days; settings: 192 h
Mythimna separata [26] = assay: Larvicidal activity against fourth-instar larval stage of Mythimna separata (Oriental armyworm) in compound-pretreated corn leaves assessed as mortality at 200 mg/l at 25 +/-1 degC after 4 days
Mythimna separata [27] = assay: Larvicidal activity against fourth-instar larval stage of Mythimna separata (Oriental armyworm) in compound-pretreated corn leaves assessed as mortality at 50 mg/l at 25 +/-1 degC after 4 days
Mythimna separata [28] = assay: Larvicidal activity against fourth-instar larval stage of Mythimna separata (Oriental armyworm) in compound-pretreated corn leaves assessed as mortality at 100 mg/l at 25 +/-1 degC after 4 days

SMILES | mortality at 0.5 µg/mL (Culex pipiens pallens [1]) [%] | mortality at 0.0025 µg/mL (Culex pipiens pallens [2]) [%] | mortality at 0.001 µg/mL (Culex pipiens pallens [3]) [%] | mortality at 1 µg/mL (Culex pipiens pallens [5]) [%] | mortality at 0.1 µg/mL (Culex pipiens pallens [6]) [%] | mortality at 0.05 µg/mL (Culex pipiens pallens [7]) [%] | mortality at 0.25 µg/mL (Culex pipiens pallens [8]) [%] | mortality at 2.5 µg/mL (Mythimna separata [9]) [%] | mortality at 0.01 µg/mL (Culex pipiens pallens [10]) [%] | mortality at 0.25 µg/mL (Mythimna separata [11]) [%] | mortality at 0.025 µg/mL (Culex pipiens pallens [12]) [%] | mortality at 0.5 µg/mL (Mythimna separata [14]) [%] | mortality at 1 µg/mL (Mythimna separata [15]) [%] | mortality at 0.005 µg/mL (Culex pipiens pallens [16]) [%] | mortality at 5 µg/mL (Mythimna separata [18]) [%] | mortality at 25 µg/mL (Mythimna separata [20]) [%] | RatioLC50 (Culex pipiens pallens [21]) | mortality at 10 µg/mL (Mythimna separata [22]) [%] | mortality at 2 µg/mL (Culex pipiens pallens [25]) [%] | mortality at 200 µg/mL (Mythimna separata [26]) [%] | other results
CC(C)O/N=C/c1ccc(NC(=O)NC(=O)c2c(F)cccc2F)cc1 | 100 | 15 | 0 | 100 | 100 | 100 | 100 | 100 | 100 | 0 | 100 | 50 | 100 | 75 |  |  |  |  |  |  | RatioLC50 (Mythimna separata [4]): 5; Activity (Cucumis sativus): 55%; LC50 (Mythimna separata [13]): 0.5 µg/mL (≈ 1.38 µM); RatioLC50 (Mythimna separata [17]): 9.4
CC(C)(C)O/N=C/c1ccc(NC(=O)NC(=O)c2c(F)cccc2F)cc1 |  | 90 | 70 |  | 100 | 100 |  | 100 | 100 | 0 | 100 | 85 | 100 | 100 | 100 | 100 | 10 | 100 |  |  | mortality at 0.0005 µg/mL (Culex pipiens pallens [19]): 20%; RatioLC50 (Mythimna separata [4]): 5
O=C(NC(=O)c1c(F)cccc1F)Nc1ccc(/C=N/OC(C(F)(F)F)C(F)(F)F)cc1 |  | 100 | 90 |  | 100 | 100 |  | 100 | 100 | 0 | 100 | 40 | 90 | 100 | 100 | 100 | 10 | 100 |  |  | mortality at 0.0005 µg/mL (Culex pipiens pallens [19]): 60%; mortality at 0.00025 µg/mL (Culex pipiens pallens [23]): 30%
CC1CCC(C(C)C)C(O/N=C/c2ccc(NC(=O)NC(=O)c3c(F)cccc3F)cc2)C1 (centres undefined) |  | 100 | 80 |  |  |  |  | 100 | 100 | 10 |  | 40 | 80 | 100 | 100 | 100 | 10 | 100 |  |  | mortality at 0.0005 µg/mL (Culex pipiens pallens [19]): 10%; mortality at 0.125 µg/mL (Mythimna separata [24]): 0%
O=C(NC(=O)c1c(F)cccc1F)Nc1ccc(/C=N/OCC(F)(F)F)cc1 |  | 70 | 10 |  | 100 | 100 |  | 100 | 100 | 0 | 100 | 60 | 90 | 100 | 100 | 100 | 10 | 100 |  |  | 
O=C(NC(=O)c1c(F)cccc1F)Nc1ccc(/C=N/OCC2CCCC2)cc1 | 10 |  |  | 100 | 10 |  | 10 |  |  |  |  |  |  |  |  | 10 |  | 0 | 100 | 80 | mortality at 50 µg/mL (Mythimna separata [27]): 10%; mortality at 100 µg/mL (Mythimna separata [28]): 40%
C[Si](C)(C)O/N=C/c1ccc(NC(=O)NC(=O)c2c(F)cccc2F)cc1 | 100 |  |  | 100 |  |  | 0 |  |  |  |  |  |  |  |  |  |  |  | 100 | 100 | mortality at 50 µg/mL (Mythimna separata [27]): 0%; mortality at 100 µg/mL (Mythimna separata [28]): 60%
O=Cc1ccc(NC(=O)NC(=O)c2c(F)cccc2F)cc1 | 0 |  |  | 80 |  |  |  |  |  |  |  |  |  |  |  |  |  |  | 100 | 0 | mortality at 100 µg/mL (Mythimna separata [28]): 0%
O=C(NC(=O)c1c(F)cccc1F)Nc1ccc(/C=N/O)cc1 | 60 |  |  | 100 | 10 |  | 40 |  |  |  |  |  |  |  |  |  |  |  | 100 | 80 | 
